19 molecules from US12421229B2, “Hydropyrido[1,2-α]pyrazine compounds for the treatment of autoimmune disease” (Hoffmann-La Roche Inc., priority 2019, dated 2025) can be followed below.

The assay deals with T1, human TLR7 (Homo sapiens, UniProt Q9NYK1).
T1 construct: host or cells: HEK293 (HEK-Blue hTLR7)
T1 sequence (Q9NYK1 27-1049): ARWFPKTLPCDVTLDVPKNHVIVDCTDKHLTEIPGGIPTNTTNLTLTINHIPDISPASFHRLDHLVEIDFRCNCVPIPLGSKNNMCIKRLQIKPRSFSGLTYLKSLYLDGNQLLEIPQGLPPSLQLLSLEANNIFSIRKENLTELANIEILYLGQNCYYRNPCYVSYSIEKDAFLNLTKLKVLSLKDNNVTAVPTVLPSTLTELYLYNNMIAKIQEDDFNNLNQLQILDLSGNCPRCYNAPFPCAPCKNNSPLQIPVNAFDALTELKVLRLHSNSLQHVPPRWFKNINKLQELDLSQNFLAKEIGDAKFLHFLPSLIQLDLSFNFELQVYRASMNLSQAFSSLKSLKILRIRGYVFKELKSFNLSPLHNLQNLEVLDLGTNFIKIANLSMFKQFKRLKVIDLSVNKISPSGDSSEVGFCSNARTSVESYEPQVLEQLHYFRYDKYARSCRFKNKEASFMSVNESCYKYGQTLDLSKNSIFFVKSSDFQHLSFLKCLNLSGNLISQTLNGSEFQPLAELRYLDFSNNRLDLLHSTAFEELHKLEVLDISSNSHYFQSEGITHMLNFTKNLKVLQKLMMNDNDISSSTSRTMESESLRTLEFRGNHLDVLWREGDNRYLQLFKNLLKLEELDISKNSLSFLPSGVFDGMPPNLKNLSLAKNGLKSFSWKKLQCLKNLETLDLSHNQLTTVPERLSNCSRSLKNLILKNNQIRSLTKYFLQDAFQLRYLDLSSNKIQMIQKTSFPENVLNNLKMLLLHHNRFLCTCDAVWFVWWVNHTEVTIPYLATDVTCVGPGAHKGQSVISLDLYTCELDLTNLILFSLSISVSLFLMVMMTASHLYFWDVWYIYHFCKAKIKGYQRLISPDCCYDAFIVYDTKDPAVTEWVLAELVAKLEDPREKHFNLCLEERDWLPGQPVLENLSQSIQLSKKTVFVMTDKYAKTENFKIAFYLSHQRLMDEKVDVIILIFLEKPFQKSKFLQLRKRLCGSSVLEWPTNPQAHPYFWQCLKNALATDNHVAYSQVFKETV
The experiment in a line: HEK293-Blue-hTLR-7 cells assay. It is filed as cell-based. Conditions: HEK293-Blue-hTLR7 cells, R848 stimulation, 20 hrs, SEAP reporter; read-out: HEK/hTLR7 IC50. The source says:
A stable HEK293-Blue-hTLR-7 cell line was purchased from InvivoGen (Cat. #: hkb-htlr7, San Diego, California, USA). These cells were originally designed for studying the stimulation of human TLR7 by monitoring the activation of NF-κB. A SEAP (secreted embryonic alkaline phosphatase) reporter gene was placed under the control of the IFN-β minimal promoter fused to five NF-κB and AP-1-binding sites. The SEAP was induced by activating NF-κB and AP-1 via stimulating HEK-Blue hTLR7 cells with TLR7 ligands. Therefore the reporter expression was declined by TLR7 antagonist under the stimulation of a ligand, such as R848 (Resiquimod), for incubation of 20 hrs. The cell culture supernatant SEAP reporter activity was determined using QUANTI-Blue™ kit (Cat. #: rep-qb1, Invivogen, San Diego, Ca, USA) at a wavelength of 640 nm, a detection medium that turns purple or blue in the presence of alkaline phosphatase.
HEK293-Blue-hTLR7 cells were incubated at a density of 250,000˜450,000 cells/mL in a volume of 170 μL in a 96-well plate in Dulbecco's Modified Eagle's medium (DMEM) containing 4.5 g/L glucose, 50 U/mL penicillin, […], […], 2 mM L-glutamine, 10% (v/v) heat-inactivated fetal bovine serum with addition of 20 μL test compound in a serial dilution in the presence of final DMSO at 1% and 10 μL of 20 uM R848 in above DMEM, perform incubation under 37° C. in a CO2 incubator for 20 hrs. Then 20 μL of the supernatant from each well was incubated with 180 μL Quanti-blue substrate solution at 37° C. for 2 hrs and the absorbance was read at 620˜655 nm using a spectrophotometer. The signaling pathway that TLR7 activation leads to downstream NF-κB activation has been widely accepted, and therefore similar reporter assay was modified for evaluating TLR7 antagonist.
As for `C[C@@H]1CN(c2ccc(C#N)c3ncccc23)C[C@@H]2C[C@H](c3ccc(N4CCNCC4)nc3)CCN21` [Example 4, 5-[(4R,8R,9aS)-4-methyl-8-(6-piperazin-1-yl-3-pyridyl)-1,3,4,6,7,8,9,9a-octahydropyrido[1,2-a]pyrazin-2-yl]quinoline-8-carbonitrile], the IC50 is 6 nM. The same measure for `C[C@@H]1CN(c2ccc(C#N)c3ncccc23)C[C@@H]2C[C@@H](Oc3cnc(N4CCNCC4)nc3)CCN21` [Example 18, 5-[(4R,8S,9aS)-4-methyl-8-(2-piperazin-1-ylpyrimidin-5-yl)oxy-1,3,4,6,7,8,9,9a-octahydropyrido[1,2-a]pyrazin-2-yl]quinoline-8-carbonitrile]: 21 nM; for `CO[C@@H]1CN(c2ccc(C3CN([C@@H]4CCN5[C@@H](C4)CN(c4ccc(C#N)c6ncccc46)C[C@H]5C)C3)cc2)C[C@H]1N` [Example 30, 5-[(4R,8R,9aS)-8-[3-[4-[(3R,4R)-3-amino-4-methoxy-pyrrolidin-1-yl]phenyl]azetidin-1-yl]-4-methyl-1,3,4,6,7,8,9,9a-octahydropyrido[1,2-a]pyrazin-2-yl]quinoline-8-carbonitrile]: 41 nM; for `C[C@@H]1CN(c2ccc(C#N)c3ncccc23)C[C@@H]2C[C@@H](c3ccc(C4CNCCO4)cc3)CCN21` (stereo partly drawn) [Example 24, 5-[(4R,8S,9aS)-4-methyl-8-(4-morpholin-2-ylphenyl)-1,3,4,6,7,8,9,9a-octahydropyrido[1,2-a]pyrazin-2-yl]quinoline-8-carbonitrile]: 4 nM. `C[C@@H]1CN(c2ccc(C#N)c3ncccc23)CC2C[C@H](c3ccc(N4CCNCC4)cc3)CCN21` (stereo partly drawn) [Example 3, 5-[(4R,8R)-4-methyl-8-(4-piperazin-1-ylphenyl)-1,3,4,6,7,8,9,9a-octahydropyrido[1,2-a]pyrazin-2-yl]quinoline-8-carbonitrile]: the IC50 was determined as 10 nM. As for `C[C@@H]1CN(c2ccc(C#N)c3ncccc23)C[C@@H]2C[C@H](c3ccc(N4CCOC[C@@H](N)C4)nc3)CCN21` [Example 23, 5-[(4R,8R,9aS)-8[6-[(6S)-6-amino-1,4-oxazepan-4-yl]-3-pyridyl]-4-methyl-1,3,4,6,7,8,9,9a-octahydropyrido[1,2-a]pyrazin-2-yl]quinoline-8-carbonitrile], the IC50 amounted to 21 nM. As to `C[C@@H]1CN(c2ccc(C#N)c3ncccc23)C[C@@H]2C[C@@H](Oc3cncc(N4CCNCC4)c3)CCN21` [Example 29, 5-[(4R,8S,9aS)-4-methyl-8-[(5-piperazin-1-yl-3-pyridyl)oxy]-1,3,4,6,7,8,9,9a-octahydropyrido[1,2-a]pyrazin-2-yl]quinoline-8-carbonitrile], the IC50 worked out at 49 nM.

Take `[2H]c1ccc2c(N3C[C@@H]4C[C@H](Nc5ccc(C[C@@H]6CNCCO6)cc5)CCN4[C@H](C)C3)ccc(C#N)c2n1` [Example 22, 5-[(4R,8R,9aS)-4-methyl-8-[4-[[(2R)-morpholin-2-yl]methyl]anilino]-1,3,4,6,7,8,9,9a-octahydropyrido[1,2-a]pyrazin-2-yl]-2-deuterio-quinoline-8-carbonitrile]: the IC50 was 44 nM. The same measure for `[2H]c1ccc2c(N3C[C@@H]4C[C@@H](N5CC(c6ccc(N7C[C@@H](N)[C@H](OC)C7)cc6)C5)CCN4[C@H](C)C3)ccc(C#N)c2n1` [Example 36]: 30 nM; for `C[C@@H]1CN(c2ccc(C#N)c3ncccc23)C[C@@H]2C[C@H](c3ccc(N4CC(N)C4)nc3)CCN21` [Example 7, 5-[(4R,8R,9aS)-8-[6-(3-aminoazetidin-1-yl)-3-pyridyl]-4-methyl-1,3,4,6,7,8,9,9a-octahydropyrido[1,2-a]pyrazin-2-yl]quinoline-8-carbonitrile]: 32 nM; for `CO[C@@H]1CN(c2ccc([C@@H]3CCN4[C@@H](C3)CN(c3ccc(C#N)c5ncccc35)C[C@H]4C)cn2)C[C@@H]1N` [Example 13, 5-[(4R,8R,9aS)-8-[6-[(3S,4R)-3-amino-4-methoxy-pyrrolidin-1-yl]-3-pyridyl]-4-methyl-1,3,4,6,7,8,9,9a-octahydropyrido[1,2-a]pyrazin-2-yl]quinoline-8-carbonitrile]: 21 nM. As to `C[C@@H]1CN(c2ccc(C#N)c3ncccc23)C[C@@H]2CC(c3ccc(C[C@@H]4CNCCO4)cc3)CCN21` (stereo in doubt) [Example 25, 5-[(4R,8R,9aS)-4-methyl-8-[4-[[(2R)-morpholin-2-yl]methyl]phenyl]-1,3,4,6,7,8,9,9a-octahydropyrido[1,2-a]pyrazin-2-yl]quinoline-8-carbonitrile], the IC50 was 8 nM. Then `C[C@@H]1CN(c2ccc(C#N)c3ncccc23)C[C@@H]2C[C@@H](NCc3ccc(N4CCNCC4)cc3)CCN21` [Example 17, 5-[(4R,8S,9aS)-4-methyl-8-[(4-piperazin-1-ylphenyl)methylamino]-1,3,4,6,7,8,9,9a-octahydropyrido[1,2-a]pyrazin-2-yl]quinoline-8-carbonitrile], with 35 nM; and `CO[C@H]1CN(c2ccc(O[C@H]3CCN4[C@@H](C3)CN(c3ccc(C#N)c5ncccc35)C[C@H]4C)cn2)C[C@H]1N` [Example 28, 5-[(4R,8S,9aS)-8-[[6-[(3R,4S)-3-amino-4-methoxy-pyrrolidin-1-yl]-3-pyridyl]oxy]-4-methyl-1,3,4,6,7,8,9,9a-octahydropyrido[1,2-a]pyrazin-2-yl]quinoline-8-carbonitrile], with 47 nM.

Regarding `C[C@@H]1CN(c2ccc(C#N)c3ncccc23)C[C@@H]2C[C@@H](Oc3ccc(N4CCNCC4)nc3)CCN21` [Example 16, 5-[(4R,8S,9aS)-4-methyl-8-[(6-piperazin-1-yl-3-pyridyl)oxy]-1,3,4,6,7,8,9,9a-octahydropyrido[1,2-a]pyrazin-2-yl]quinoline-8-carbonitrile], the IC50 is 35 nM. With `CO[C@H]1CN(c2ccc(C3CN([C@@H]4CCN5[C@@H](C4)CN(c4ccc(C#N)c6ncccc46)C[C@H]5C)C3)cc2)C[C@H]1N` [Example 32, 5-[(4R,8R,9aS)-8-[3-[4-[(3R,4S)-3-amino-4-methoxy-pyrrolidin-1-yl]phenyl]azetidin-1-yl]-4-methyl-1,3,4,6,7,8,9,9a-octahydropyrido[1,2-a]pyrazin-2-yl]quinoline-8-carbonitrile], the IC50 stood at 48 nM. Then `C[C@@H]1CN(c2ccc(C#N)c3ncccc23)C[C@@H]2C[C@@H](c3ccc(CC4CNCCO4)cc3)CCN21` (stereo partly drawn) [Example 26, 5-[(4R,8S,9aS)-4-methyl-8-[4-(morpholin-2-ylmethyl)phenyl]-1,3,4,6,7,8,9,9a-octahydropyrido[1,2-a]pyrazin-2-yl]quinoline-8-carbonitrile], with 30 nM. The same measure for `C[C@@H]1CN(c2ccc(C#N)c3ncccc23)C[C@H]2C[C@H](c3ccc(N4CCNCC4)nc3)CCN21` [Example 15, 5-[(4R,8R,9aR)-4-methyl-8-(6-piperazin-1-yl-3-pyridyl)-1,3,4,6,7,8,9,9a-octahydropyrido[1,2-a]pyrazin-2-yl]quinoline-8-carbonitrile]: 24 nM. Then `C[C@@H]1CN(c2ccc(C#N)c3ncccc23)C[C@@H]2C[C@H](Nc3ccc([C@H]4CNCCO4)cc3)CCN21` [Example 20, 5-[(4R,8R,9aS)-4-methyl-8-[4-[(2S)-morpholin-2-yl]anilino]-1,3,4,6,7,8,9,9a-octahydropyrido[1,2-a]pyrazin-2-yl]quinoline-8-carbonitrile], with 13 nM.
